Assay results as given in patent US8357694B2, “Substituted 5,6-dihydro-6-phenylbenzo[F]isoquinolin-2-amine compounds” (ArQule, Inc., priority 2008, dated 2013).
Where a name gives a salt, the structure may show the parent alone.

Row | SMILES | melting point [°C]
1 | CCCCN(C)CCc1cc(Nc2ncc3c(n2)-c2ccccc2[C@H](c2ccccc2F)C3)ccc1F (as salt: hydrochloride) [Example 172, (R)—N-(3-(2-(butyl(methyl)amino)ethyl)-4-fluorophenyl)-6-(2-fluorophenyl)-5,6-dihydrobenzo[h]quinazolin-2-amine hydrochloride salt] | 125 to 130
2 | COCCNCCc1cc(Nc2ncc3c(n2)-c2ccccc2[C@H](c2ccccc2F)C3)ccc1F (as salt: hydrochloride) [Example 173, (R)—N-(4-fluoro-3-(2-(2-methoxyethylamino)ethyl)phenyl)-6-(2-fluorophenyl)-5,6-dihydrobenzo[h]quinazolin-2-amine hydrochloride salt] | 131 to 132
3 | CN1CCN(CCc2cc(Nc3ncc4c(n3)-c3ccccc3[C@H](c3ccccc3F)C4)ccc2F)CC1 (as salt: hydrochloride) [Example 174, (R)—N-(4-fluoro-3-(2-(4-methylpiperazin-1-yl)ethyl)phenyl)-6-(2-fluorophenyl)-5,6-dihydrobenzo[h]quinazolin-2-amine hydrochloride salt] | 225 to 229
4 | COCCN1CCN(CCc2cc(Nc3ncc4c(n3)-c3ccccc3[C@H](c3ccccc3F)C4)ccc2F)CC1 (as salt: hydrochloride) [Example 175, (R)—N-(4-fluoro-3-(2-(4-(2-methoxyethyl)piperazin-1-yl)ethyl)phenyl)-6-(2-fluorophenyl)-5,6-dihydrobenzo[h]quinazolin-2-amine hydrochloride salt] | 199 to 201
5 | COCCNCc1cccc(Nc2ncc3c(n2)-c2ccccc2[C@H](c2ccccc2F)C3)c1 (as salt: hydrochloride) [Example 178, (R)-6-(2-fluorophenyl)-N-(3-((2-methoxyethylamino)methyl)phenyl)-5,6-dihydrobenzo[h]quinazolin-2-amine hydrochloride] | 158 to 163
6 | COCCN1CCN(Cc2cccc(Nc3ncc4c(n3)-c3ccccc3[C@H](c3ccccc3F)C4)c2)CC1 (as salt: hydrochloride) [Example 179, (R)-6-(2-fluorophenyl)-N-(3-((4-(2-methoxyethyl)piperazin-1-yl)methyl)phenyl)-5,6-dihydrobenzo[h]quinazolin-2-amine hydrochloride] | 173 to 178
7 | CN(C)CCCNc1ncc2c(n1)-c1ccccc1C(c1cccc(Br)c1)C2 (stereo not drawn) [Example 5, N^1-(6-(3-bromophenyl)-5,6-dihydrobenzo[h]quinazolin-2-yl)-N^3,N^3-dimethylpropane-1,3-diamine] | 120 to 122
8 | CN(C)CCCCNc1ncc2c(n1)-c1ccccc1C(c1cccc(Br)c1)C2 (stereo not drawn) [Example 6, N^1-(6-(3-bromophenyl)-5,6-dihydrobenzo[h]quinazolin-2-yl)-N^4,N^4-dimethylbutane-1,4-diamine] | 115 to 117
9 | OCCc1ccc(Nc2ncc3c(n2)-c2ccccc2C(c2cccc(Br)c2)C3)cc1 (stereo not drawn) [Example 7, 2-(4-(6-(3-bromophenyl)-5,6-dihydrobenzo[h]quinazolin-2-ylamino)phenyl)ethanol] | 88 to 90
10 | CN(C)CCCNc1ncc2c(n1)-c1ccccc1C(c1ccc(Cl)c(Cl)c1)C2 (stereo not drawn) [Example 11, N^1-(6-(3,4-dichlorophenyl)-5,6-dihydrobenzo[h]quinazolin-2-yl)-N^3,N^3-dimethylpropane-1,3-diamine] | 110 to 114
11 | CN(C)CCCNc1ncc2c(n1)-c1ccccc1[C@@H](c1ccc(Cl)c(Cl)c1)C2 [Example 12, (R)—N^1-(6-(3,4-dichlorophenyl)-5,6-dihydrobenzo[h]quinazolin-2-yl)-N^3,N^3-dimethylpropane-1,3-diamine] | 59 to 62
12 | CN(C)CCCNc1ncc2c(n1)-c1ccccc1[C@H](c1ccc(Cl)c(Cl)c1)C2 [Example 13, (S)—N^1-(6-(3,4-dichlorophenyl)-5,6-dihydrobenzo[h]quinazolin-2-yl)-N^3,N^3-dimethylpropane-1,3-diamine] | 59 to 62
